Data on 21 compounds can be found in paper PMC5856786, “A DHODH inhibitor increases p53 synthesis and enhances tumor cell killing by p53 degradation blockage” (Nature Communications, 2018).

The structures appear in SMILES notation.

The first assay deals with ARN8 cells. As to the kind of experiment: SRB growth/viability assay, ARN8. It counts as cell-based, human. Particulars: ARN8; Fig. 4e. As to the method:
SRB assays measuring protein content were performed in 96-well plates as previously described.
Turning to `C/C(O)=C(\C#N)C(=O)Nc1ccc(C(F)(F)F)cc1` [teriflunomide, reference compound], the “effects on ARN8 growth and p53-dependent transcription ± uridine compared with HZ00” value is on record as “phenocopied the effects of HZ00”.

As to `Cc1c(-c2ccc(-c3ccccc3F)cc2)nc2ccc(F)cc2c1C(=O)O` [brequinar, reference compound], the “effects on ARN8 growth and p53-dependent transcription ± uridine compared with HZ00” value was “phenocopied the effects of HZ00”.

In another assay the target is T1, recombinant human DHODH (Homo sapiens, UniProt Q02127). Kind of assay: Kinetic DHODH enzyme assay (3,4-dimethoxy-5-methyl-p-benzoquinone, DCIP). It counts as biochemical. Details: made in house. Particulars: Fig. 5a; average of three independent repeats ± SD. As to the method:
In Fig. 5a enzyme assays were optimized and performed with 6 nM recombinant human DHODH prepared as described. The reaction mixture for these kinetic assays consisted of 1 mM DL-dihydroorotic acid, 100 µM 3,4-dimethoxy-5-methyl-p-benzoquinone (#D9150, Sigma-Aldrich), and 100 µM DCIP in enzyme buffer. A stock solution of 20 mM DCIP was prepared in enzyme buffer and filtered through filter paper (20–25 μm pore size) just before use. Loss in absorbance by DCIP was measured at 595 nm at RT in a stepped time course (8 × 2 min, 8 × 3 min, 6 × 5 min). […] Therefore, for each concentration of inhibitor tested, a value for DHODH’s Vmax was estimated by linear regression within this time frame.
Target sequence in this assay (Q02127 29-395 limits assumed): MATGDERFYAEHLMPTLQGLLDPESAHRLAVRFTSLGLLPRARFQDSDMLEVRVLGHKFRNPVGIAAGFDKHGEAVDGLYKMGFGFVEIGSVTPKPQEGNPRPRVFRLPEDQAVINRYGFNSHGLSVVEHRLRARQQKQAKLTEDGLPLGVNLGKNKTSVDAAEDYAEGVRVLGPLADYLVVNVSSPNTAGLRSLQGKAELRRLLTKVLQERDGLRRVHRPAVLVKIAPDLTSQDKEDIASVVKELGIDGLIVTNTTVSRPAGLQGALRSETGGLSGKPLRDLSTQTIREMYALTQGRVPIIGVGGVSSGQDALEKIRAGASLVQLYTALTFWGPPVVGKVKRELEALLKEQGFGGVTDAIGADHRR
On to `O=C(N[C@H]1CCCc2c1cnn2-c1ccccc1F)c1onc2c1CCCC2` [(S)-HZ05], for which the IC50 was 6.7 ± 0.67 µM.

As to `O=C(NC1CCCc2c1cnn2-c1ccc(F)cc1F)c1onc2c1CCCC2` (stereo not drawn) [HZ02], the IC50 was found to be 0.289 ± 0.046 µM.

Regarding `Cc1ccc(-n2ncc3c2CC(C)(C)CC3NC(=O)c2ccccn2)cc1` (stereo not drawn) [HZ25], the IC50 was > 10 µM.

A further assay concerns the target T1, recombinant human DHODH. As to the kind of experiment: Endpoint DHODH enzyme assay (coenzyme Q10, DCIP). The assay is classed as biochemical. Details: purchased Prospecbio ENZ-642. Particulars: compound at 10 µM; Supplementary Table 5, 20,000 compound library. As to the method:
In Supplementary Tables 5 and 6, endpoint assays were performed with 10 nM recombinant human DHODH (#ENZ-642, Prospecbio). The reaction mixture consisted of 624.6 µM DL-dihydroorotic acid, 66.4 µM coenzyme Q10, 66.4 µM 2,6-dichlorophenolindophenol sodium salt (DCIP) (all reagents purchased from Sigma-Aldrich) in enzyme buffer (50 mM Tris-HCl, pH 8.0, 0.1% Triton X-100, 150 mM KCl). Loss in absorbance by DCIP was measured at 595 nm after incubation at RT for 60 min.
Target sequence in this assay (Q02127 31-395 limits assumed): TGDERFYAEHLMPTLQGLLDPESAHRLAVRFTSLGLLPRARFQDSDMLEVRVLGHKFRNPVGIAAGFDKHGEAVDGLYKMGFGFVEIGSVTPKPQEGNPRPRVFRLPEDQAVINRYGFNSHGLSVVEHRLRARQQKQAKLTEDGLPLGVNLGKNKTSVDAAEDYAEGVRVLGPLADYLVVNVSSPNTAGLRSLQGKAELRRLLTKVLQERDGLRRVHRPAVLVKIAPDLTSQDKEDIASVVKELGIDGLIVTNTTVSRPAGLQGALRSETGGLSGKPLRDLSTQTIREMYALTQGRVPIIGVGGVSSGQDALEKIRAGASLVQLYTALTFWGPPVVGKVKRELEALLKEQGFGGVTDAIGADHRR
Take `COc1ccc(Cl)cc1NC(=O)c1ccc([N+](=O)[O-])o1` [compound 5356839, N-(5-chloro-2-methoxyphenyl)-5-nitro-2-furamide]: the remaining activity at 10 µM was found to be 83.8%.

As to `COc1ccc(-c2nc(CN3CCCC3c3ccccc3OC)c(C)o2)cc1C` (stereo not drawn) [compound 47870602, 2-(4-methoxy-3-methylphenyl)-4-{[2-(2-methoxyphenyl)-1-pyrrolidinyl]methyl}-5-methyl-1,3-oxazole], the “remaining DHODH activity (%) Average” value worked out at 10.68%.

Take `CCN(CC)c1ccc(-c2nc(-c3cccc(OC)c3OC)no2)cn1` [compound 57235883, 5-[3-(2,3-dimethoxyphenyl)-1,2,4-oxadiazol-5-yl]-N,N-diethyl-2-pyridinamine]: the remaining activity at 10 µM was 9.4%.

With `CCOc1cccc2c(C)nc(Nc3nc(=O)c4c([nH]3)CCCC4)nc12` [compound 7587351, 2-[(8-ethoxy-4-methyl-2-quinazolinyl)amino]-5,6,7,8-tetrahydro-4(1H)-quinazolinone], the remaining activity at 10 µM was 92.7%.

For `COC(=O)c1cccc(NC(=S)Nc2cc(Cl)ccc2OC)c1` [compound 7801595, methyl 3-({[(5-chloro-2-methoxyphenyl)amino]carbonothioyl}amino)benzoate], the remaining activity at 10 µM came to 100%.

`COc1cccc(-c2noc(-c3ccc(N4CCCCC4)nc3)n2)c1OC` [compound 57999135, 5-[3-(2,3-dimethoxyphenyl)-1,2,4-oxadiazol-5-yl]-2-(1-piperidinyl)pyridine]: the remaining activity at 10 µM amounted to 16.7%.

In the case of `O=C(Nc1nc2c(s1)CCCC2)C(=O)c1c[nH]c2ccccc12` [compound 7690424, 2-(1H-indol-3-yl)-2-oxo-N-(4,5,6,7-tetrahydro-1,3-benzothiazol-2-yl)acetamide], the remaining activity at 10 µM turned out to be 11%.

The assay is the same for the next values; noted with them: compound at 10 µM; Supplementary Table 6, 30,000 compound library.
Turning to `NN=C1CCCc2c1[nH]c1ccc(Br)cc21` [compound 5373779, 6-bromo-2,3,4,9-tetrahydro-1H-carbazol-1-one hydrazone], the remaining activity at 10 µM came out at 58.2%.

With `COc1ccccc1NC1=CC(=O)CC(c2ccccc2)C1` (stereo not drawn) [compound 5220809, 3-[(2-methoxyphenyl)amino]-5-phenyl-2-cyclohexen-1-one], the remaining activity at 10 µM turned out to be 100%.

In the case of `CCN(CC)c1ccc2cc(-c3nc4ccccc4n3C)c(=O)oc2c1` [compound 5213776, 7-(diethylamino)-3-(1-methyl-1H-benzimidazol-2-yl)-2H-chromen-2-one], the remaining activity at 10 µM was 96.8%.

Regarding `Cc1ccc(C=NNC(=O)COc2ccccc2Br)c(C)c1` [compound 5554099, 2-(2-bromophenoxy)-N'-(2,4-dimethylbenzylidene)acetohydrazide], the remaining activity at 10 µM was determined as 78.1%.

Regarding `Oc1ccccc1C=Nc1ccc2cc3ccc(N=Cc4ccccc4O)cc3nc2c1` [compound 5267938, 2,2'-[3,6-acridinediylbis(nitrilomethylylidene)]diphenol], the “remaining DHODH activity (%) Average” value is 98.57%.

As for `O=c1c(Cl)c(Cl)cnn1-c1ccc(Cl)c(C(F)(F)F)c1` [compound 5344759, 4,5-dichloro-2-[4-chloro-3-(trifluoromethyl)phenyl]-3(2H)-pyridazinone], the remaining activity at 10 µM turned out to be 98.8%.

As to `O=C(NN=Cc1ccc(O)cc1)c1cc(-c2ccccc2)nc2ccccc12` [compound 5347717, N'-(4-hydroxybenzylidene)-2-phenyl-4-quinolinecarbohydrazide], the remaining activity at 10 µM was determined as 8.96%.

With `Cn1c2ccccc2n2c(C(O)C(Cl)(Cl)Cl)c(-c3ccccc3)nc12` (stereo not drawn) [compound 5650027, 2,2,2-trichloro-1-(9-methyl-2-phenyl-9H-imidazo[1,2-a]benzimidazol-3-yl)ethanol], the remaining activity at 10 µM turned out to be 68.4%.

Turning to `CCOc1ccc(S(=O)(=O)Nc2cc(Br)c3oc(C)c(C(C)=O)c3c2)cc1` [compound 5754791, N-(3-acetyl-7-bromo-2-methyl-1-benzofuran-5-yl)-4-ethoxybenzenesulfonamide], the remaining activity at 10 µM is 96.8%.

For orientation: IC50 means the point on the concentration scale where inhibition reaches its midpoint. What is called remaining activity is the signal under treatment as a percentage of the control signal.
